Experimental data published in US20150087723A1, “MICROBIAL COMPOSITION” (Rohm and Haas Company, priority 2011, published 2015).
Like-named read-outs stand apart in the source and are kept apart here.

Columns and labels:
[1] = system: Escherichia coli (E. coli—ATCC #10536); assay: Synergy test: high resolution MBC microtiter plate assay, phosphate buffer containing 35% dipropylene glycol, 15 seconds contact; format: cell-based; conditions: E. coli 10536; for SI (Synergy Index = Qa/QA + Qb/QB): at Qa and Qb, <1 synergy, 1 additivity, >1 antagonism; for Qa: MBC of the first component (A) acting alone (QA): component alone (Qb = 0), complete kill in 15 seconds
Excerpt: One measure of synergy is -the industrially accepted method described by Kull, F. C.; Eisman, P. C.; Sylwestrowicz, H. D. and Mayer, R. L., in Applied Microbiology 9:538-541 (1961), using the ratio determined by the formula:
Qa/QA+Qb/QB=Synergy Index (“SI”)
wherein: QA=concentration of compound A (first component) in percent, acting alone, which produced an end point (MBC of Compound A). Qa =concentration of compound A in percent, in the mixture, which produced an end point. QB=concentration of compound B (second component) in percent, acting alone, which produced an end point (MBC of Compound B). Qb=concentration of compound B in percent, in the mixture, which produced an end point.
When the sum of Qa/QA and Qb/QB is greater than one, antagonism is indicated. […] The lower the SI, the greater is the synergy shown by that particular mixture. The minimum biocidal concentration (MBC) of a microbicide is the lowest concentration tested under a specific set of conditions that provides complete kill of the tested microorganisms.
Synergy tests were-conducted using standard microtiter plate assays with, phosphate buffer containing 35% dipropylene glycol (DPG). In this method, a wide range of combinations of chemicals was tested by conducting high resolution MBC assays of Component (A) in the presence of various concentrations of Component (B). High resolution MBCs were determined by adding varying amounts of microbicide to one column of a microtiter plate and doing subsequent ten-fold dilutions using an automated liquid handling system to obtain a series of closely spaced endpoints. The MBC plate was inoculated one column at a time with the test microorganism. An aliquot of the inoculated well was transferred at 15 seconds to a plate containing a neutralizing agent (D/E Neutralizing Broth), mixed and held for 5 minutes before being transferred to a growth plate containing trypticase soy broth (TSB). The TSB plate was incubated at 37° C. and read for the presence/absence of growth at 24 hours. The lowest level tested that provided complete kill (as evidenced by no growth in the microtitre plate) of the test organisms in 15 seconds is the minimum biocidal concentration (MBC).
The synergy of the combinations of the present invention was determined against a bacterium, Escherichia coli (E. coli—ATCC #10536), at a concentration of approximately 1×10^8 bacteria per mL. This microorganism is representative of natural contaminants in many consumer and industrial applications.

[2] = system: Escherichia coli (E. coli—ATCC #10536); assay: Automated assessment of efficacy in model surfactant base (2.85% sodium cocoyl glycinate + 1.85% sodium lauroamphoacetate, pH 10), 15 seconds exposure, OD450/OD590 readout; format: cell-based; conditions: for MBC: Escherichia coli, ATCC10536, 15 s; for No. of replicates showing growth (out of 4) / Δ OD 450 nm = OD450 (time = 16 hours) - OD450 (time zero), Mean / Δ OD 590 nm OD590 (time = 16 hours) - OD590 (time zero), Mean: model surfactant solution; for Phenol MBC %(w/v): phenol alone, model surfactant, E. Coli
Method: Solutions were prepared such that the concentrations of the surfactant components and test actives were 1.1×x the final desired concentration in order to allow for dilution with the bacterial inoculum in the test. The solutions were manually adjusted to pH 10.0 by drop wise addition of sodium hydroxide solution, as measured with a phi meter at ambient temperature.
Tests were conducted using standard microtiter plate assays using an automated liquid handling system, 270 μl of the surfactant test solution was pipetted into each well of the microtitre plate and 30 μl of the bacterial suspension was then added. After exactly 15 seconds of bacterial exposure, a 30 μl volume of bacterial cells was withdrawn and transferred to 270 μl of D/E quench solution. After 5 minutes in the D/E quench, the optical density (OD) was measured for each plate in turn at two specific wavelengths (450 nm and 590 nm). These provide a dual check of antimicrobial activity, as the OD450 reading is specific for the yellow colour of D/E quench when bacterial growth is observed, whereas OD590 is specific for the initial purple colour of the D/E quench which is retained if no bacterial growth is observed. After the time zero OD measurements, plates were then incubated at 37° C. overnight (16 hours) before repeating the OD measurements. Delta OD values were calculated by subtracting […] the initial value at time zero. Bacterial growth is observed as an increase in OD450 and a decrease in ΔOD590. To identify antibacterially efficacious systems (those preventing appreciable bacterial growth after incubation), the following threshold changes in OD readings have been adopted: if (1), OD450 increases by less than 0.2 absorbance unit on incubation and (2). OD590 decreases by less than 0.35 unit on incubation. Conversely, where OD450 increases by more than 0.2 AU and OD590 decreases by more than 0.35 unit after incubation, corresponding to a colour shift from purple to yellow, the test system allows bacterial growth and is not deemed efficacious. Four replicate measurements in the same plate have been made for each test system. The number of replicate wells showing either bacterial growth or no growth is also readily assessed by eye by following the colour change.
Dose responses for individual components and binary mixtures of actives at a used concentration ratio were generated by sequential dilution of liquors with further surfactant solution to obtain a series of endpoints.
In some selected cases, the combinations were also tested at the weight ratio 1:1.

[3] = in 2.85% sodium cocoyl glycinate + 1.85% sodium lauroamphoacetate solution at pH 10, E. coli, read-out: MBC (% w/v)

Structure (SMILES)	SI (Synergy Index = Qa/QA + Qb/QB) [1]	Qa: MBC of the first component (A) acting alone (QA) [1] [weight %]	MBC [2, 3] [µg/mL]	No. of replicates showing growth (out of 4) ([2]; component alone at 0.125% w/v)	Δ OD 450 nm = OD450 (time = 16 hours) - OD450 (time zero), Mean ([2]; component alone at 0.125% w/v)	Δ OD 590 nm OD590 (time = 16 hours) - OD590 (time zero), Mean ([2]; component alone at 0.125% w/v)	No. of replicates showing growth (out of 4) ([2]; component alone at 0.2% w/v)	Δ OD 450 nm = OD450 (time = 16 hours) - OD450 (time zero), Mean ([2]; component alone at 0.2% w/v)	Δ OD 590 nm OD590 (time = 16 hours) - OD590 (time zero), Mean ([2]; component alone at 0.2% w/v)	No. of replicates showing growth (out of 4) ([2]; component alone at […] w/v)	Δ OD 450 nm = OD450 (time = 16 hours) - OD450 (time zero), Mean ([2]; component alone at […] w/v)	Δ OD 590 nm OD590 (time = 16 hours) - OD590 (time zero), Mean ([2]; component alone at […] w/v)	No. of replicates showing growth (out of 4) ([2]; component alone at 0.05% w/v)	Δ OD 450 nm = OD450 (time = 16 hours) - OD450 (time zero), Mean ([2]; component alone at 0.05% w/v)	Δ OD 590 nm OD590 (time = 16 hours) - OD590 (time zero), Mean ([2]; component alone at 0.05% w/v)	also measured
CCC(C)c1ccc(O)cc1 (stereo not drawn) [4-sec-butylphenol]	1.00	0.2	> 2000	4 out of 4	−0.56	0.60	4 out of 4	−0.56	0.59	4 out of 4	−0.53	0.60	–	–	–	No. of replicates showing growth (out of 4) ([2]; component alone at 0.175% w/v): 4 out of 4; Δ OD 450 nm = OD450 (time = 16 hours) - OD450 (time zero), Mean ([2]; component alone at 0.175% w/v): −0.54; Δ OD 590 nm OD590 (time = 16 hours) - OD590 (time zero), Mean ([2]; component alone at 0.175% w/v): 0.59
CCCc1ccccc1O [2-propyphenol]	–	–	–	–	–	–	–	–	–	–	–	–	4 out of 4	−1.43	0.46	–
CCC(C)c1ccccc1O (stereo not drawn) [2-sec-butylphenol]	1.00	0.2	1750	–	–	–	0 out of 4	−0.01	0.09	–	–	–	4 out of 4	−1.50	0.30	Phenol MBC %(w/v) [2]: 0.175 %(w/v)
Cc1ccc(C(C)C)cc1O [5-isopropyl-2-methylphenol]	1.00	–	–	–	–	–	4 out of 4	−0.52	0.62	4 out of 4	–	–	–	–	–	MBC ([2]; pH 10, read-out: MBC (% w/v)): > 2000 µg/mL; No. of replicates showing growth (out of 4) ([2]; component alone at 0.1% w/v): 4 out of 4; Δ OD 450 nm = OD450 (time = 16 hours) - OD450 (time zero), Mean ([2]; component alone at 0.1% w/v): −0.52; Δ OD 590 nm OD590 (time = 16 hours) - OD590 (time zero), Mean ([2]; component alone at 0.1% w/v): 0.62
Cc1cc(O)ccc1C(C)C [4-isopropyl-3-methylphenol]	1.00	–	> 2000	–	–	–	4 out of 4	−1.41	0.36	4 out of 4	−1.53	0.27	4 out of 4	−1.52	0.25	No. of replicates showing growth (out of 4) ([2]; component alone at 0.1% w/v): 4 out of 4; Δ OD 450 nm = OD450 (time = 16 hours) - OD450 (time zero), Mean ([2]; component alone at 0.1% w/v): −1.50; Δ OD 590 nm OD590 (time = 16 hours) - OD590 (time zero), Mean ([2]; component alone at 0.1% w/v): 0.24
CC(C)(C)c1cccc(O)c1 [3-tert-butylphenol]	1.00	0.3	> 2000	4 out of 4	−0.45	0.65	4 out of 4	−0.47	0.64	4 out of 4	−0.43	0.65	–	–	–	–
C/C=C/c1ccccc1O [(E)-2-(prop-1-enyl)phenol]	1.00	–	–	–	–	–	4 out of 4	−0.53	0.63	4 out of 4	−0.57	0.58	–	–	–	MBC ([2]; pH 10, read-out: MBC (% w/v)): > 2000 µg/mL; No. of replicates showing growth (out of 4) ([2]; component alone at 0.1% w/v): 4 out of 4; Δ OD 450 nm = OD450 (time = 16 hours) - OD450 (time zero), Mean ([2]; component alone at 0.1% w/v): −0.60; Δ OD 590 nm OD590 (time = 16 hours) - OD590 (time zero), Mean ([2]; component alone at 0.1% w/v): 0.59
CC(C)(C)c1ccccc1O [2-tert-butylphenol]	1.00	–	2000	4 out of 4	−1.48	0.30	–	–	–	4 out of 4	−1.50	0.28	4 out of 4	−1.58	0.22	No. of replicates showing growth (out of 4) ([2]; component alone at 0.175% w/v): 4 out of 4; Δ OD 450 nm = OD450 (time = 16 hours) - OD450 (time zero), Mean ([2]; component alone at 0.175% w/v): −1.08; Δ OD 590 nm OD590 (time = 16 hours) - OD590 (time zero), Mean ([2]; component alone at 0.175% w/v): 0.57; Phenol MBC %(w/v) [2]: 0.2 %(w/v)
Cc1cc(O)cc(C(C)C)c1 [3-isopropyl-5-methylphenol]	1.00	–	–	–	–	–	–	–	–	–	–	–	–	–	–	–
CCCCc1ccc(O)cc1 [4-n-butylphenol]	1.00	0.2	–	–	–	–	–	–	–	–	–	–	–	–	–	–
Cc1ccc(C(C)(C)C)c(O)c1 [2-tert-butyl-5-methylphenol]	–	–	2000	4 out of 4	−1.45	0.32	–	–	–	4 out of 4	−1.47	0.28	4 out of 4	−1.50	0.29	No. of replicates showing growth (out of 4) ([2]; component alone at 0.175% w/v): 4 out of 4; Δ OD 450 nm = OD450 (time = 16 hours) - OD450 (time zero), Mean ([2]; component alone at 0.175% w/v): −1.30; Δ OD 590 nm OD590 (time = 16 hours) - OD590 (time zero), Mean ([2]; component alone at 0.175% w/v): 0.47
